Measured values as given in article PMC3514216, “SRC Homology 2 Domain Binding Sites in Insulin, IGF-1 and FGF receptor mediated signaling networks reveal an extensive potential interactome” (Cell Communication and Signaling : CCS, 2012).

System: panel of 50 SH2 domains
Experiment: SPOT peptide array probed with each of 50 GST-SH2 domains
Format: binding
Settings: SPOT192 peptide array; for SH2 Domains >3X: list of GST-SH2 domains with spot intensity >3X array mean (array-positive); for 2X < SH2 Domains < 3X: list of GST-SH2 domains with spot intensity between 2X and 3X array mean (indeterminate range)
From the text: The use of addressable peptide arrays is a reproducible and semi-quantitative approach that has been extensively validated for studying protein interactions with peptide ligands. To investigate connections between SH2 domain proteins and their putative phosphorylated docking sites on cell surface receptors, we developed addressable arrays consisting of 192 phosphotyrosine peptides. This peptide set was assembled using 71 phosphotyrosine peptide motifs corresponding to all of the cytoplasmic tyrosine residues within the FGF receptors (FGFR1-4), insulin receptor (InsR) and IGF-1 receptor (IGF-1R) (Figure 1A). Activation of these receptors results in the phosphorylation of associated scaffold proteins, and so 75 phosphotyrosine peptides corresponding to a comprehensive list of tyrosine residues within insulin receptor substrates (IRS-1 and IRS-2) and fibroblast receptor substrates (FRS-2 and FRS-3) were included. In addition, 33 phosphotyrosine peptides were incorporated from the downstream signaling proteins PLC-γ1, p130Cas (BCAR1) and p62DOK1. […] These control peptides provide a reference and establish the empirical cut-off for designated binding interactions (Table 1). No discrimination was made against peptides on the basis of reported phosphorylation state in order to examine a diverse and unbiased set of motifs. The resulting set of 192 phosphotyrosine peptides and their corresponding position in the proteins of origin is noted in Additional file 1: Table S1. Addressable arrays were synthesized as membrane-bound 11-mer peptides using the SPOT synthesis technique. While the majority of SH2 domains recognize residues C-terminal to the phosphotyrosine in their cognate peptide ligands, additional contacts between SH2 domains and residues N-terminal to the phosphotyrosine are observed for the SH2 domain of Sh2d1a (SAP) and cannot be ruled out in other cases. Peptides were synthesized with six flanking residues C-terminal to the phosphotyrosine and four residues N-terminal to the phosphotyrosine.
To assess the potential network of SH2 domain interactions we selected 50 SH2 domains representing 28 of the 38 families of SH2 domains (Figure 1B) all of which we have previously shown can be expressed and purified. These include a number of extensively studied SH2 domains (Src, Grb2, PLCγ), as well as a number of less studied SH2 domains from proteins such as Shd, She, Shf, Slnk (Sh2d6), Sh2d1a (SAP), Sh2d1b (Eat-2), and Brdg1. To address potential variability in specificity within families we employed all members from the SHB, CRK, GRB2, SRC and ABL families (families are indicated with complete Capitalized lettering).
SH2 domains were arrayed as GST fusion proteins and detected using anti-GST primary antibodies and near-infrared labeled secondary antibodies. In an effort to present a dataset with minimal false positives, we chose an empirical cutoff based on the array average across all peptide spots to classify interactions (Figure 1A). In cases where the intensity of the signal for an individual SH2-domain binding event exceeded the mean intensity of all the peptides on the membrane by three-fold were scored as “array positives” [22]. Non-binding was judged in cases where the intensity of a spot was less than the mean intensity of all spots on the membrane and these were scored as “array negatives”. Peptides with signal intensities between 1X and 3X mean were scored as “indeterminate” and ascribed as neither array positive binding interactions nor array-negative non-binders. […] This signature may be indicative of promiscuity differences between phosphopeptides or there may be a subset of peptides which interact in a nonspecific fashion with either the GST fusion tag or one of the antibodies used for detection, resulting in false positives. […]

Substance | SH2 Domains >3X | 2X < SH2 Domains < 3X
QDSWpYQALLQL [B22] | ABL2, BCAR3, CRK, MATK, SH2D2A, SYK_C, TENC1, VAV1 | BMX, GADS, RIN1, Sh2b, SHD
QEGWpYRALTDL [D05] | CRK | ABL1, ABL2, TENC1
QGYVpYEAAQPE [H09] | VAV1 | ZAP70_N
QQGLpYQVPGPS [H07] | CRK, CRKL | 
QSHTpYVNTPAS [G12] | GADS, GRAP, GRB2, GRB7, VAV1 | ABL1, SH2D2A
QVHTpYVNTTGV [G02] | GADS, GRAP, GRB2, GRB7, PI3K1_N, PI3K1_C | ABL1, ZAP70_N
RGMEYpLASKKA [E12] | BCAR3, BRDG1, TENC1, ZAP70_N | BMX, FER, MIST, PLCG2_N, SHB, SHF
RGMEpYLASQKC [E24] | BRDG1, SHF | BCAR3, PLCG2_N, PLCG2_C, SHB, SHD, ZAP70_N
RGMQpYLESRKA [F15] | BCAR3, BRDG1, TENC1 | BMX, ITK, MIST, PLCG2_N, PLCG2_C, SHF
RKRTpYSLTTPA [D13] | BCAR3, BRDG1, ITK, PLCG2_N, TENC1 | BMX, BRK, MIST, SHB, SHF
RKVGpYLRKPKS [B18] | BCAR3, BMX, BRDG1, BRK, FER, PI3K1_N, RIN1, TENC1 | MATK, MIST, PLCG2_N, PTPN11_C, SHB, SHF, SHD
RLEYpYENEKKW [B20] | ABL1, ABL2, BMX, BRK, FER, FGR, HCK, GADS, GRAP, GRB2, GRB7, MATK, MIST, PI3K1_N, PI3K1_C, RIN1, SH2D1B, SH2D2A, SH3BP2, SHF, TENC1, VAV1 | BCAR3, BRDG1, CRK, ITK, PLCG2_N, PTPN11_N, PTPN11_C, Sh2b, SHC1, SHD, SRC
RLEYpYESEKKW [D01] | SH3BP2 | BRDG1, FER, MIST, PTPN11_C, Sh2b, SH2D1B
RQLNpYIQVDLE [G09] | BCAR3, BMX, BRDG1, DAPP1, ITK, MIST, PLCG2_C, PTPN11_N, RASA1_N, SHB, SHF, SHD, SHE, SYK_C, VAV1, ZAP70_N | PTPN11_C, Sh2b
RQLNpYIQVELK [G14] | BCAR3, MIST, PTPN11_N, SHE | BRDG1, SHD, TENC1
RRYGpYDSNLFS [F23] | ABL1, BCAR3, BMX, BRDG1, CRK, CRKL, FER, MATK, SHB, SHD, TENC1 | PLCG2_N, PTPN11_C, SH2D2A, SHF
RSDDpYMPMSPA [D19] |  | PI3K1_C
RTELpYAVIDIE [G10] | ABL2, BMX, ITK, MIST, PLCG2_C, RASA1_N, Sh2b, SH2D1B, SHB, SHF, SHE, SYK_C | ABL1, BRK, RASA1_C, SHD, YES
SDAYpYGPEDPH [C11] |  | BLK, BMX, DAPP1, FYN, GRB7, LCK, LYN, PLCG2_C, RASA1_C, SH2D1B, SHC1
SDDDpYDDVDIP [A12] | BRK, NCK1, SLNK | 
SGTSpYGKLWTN [C08] | BCAR3, BMX, BRDG1, CRK, FER, MIST, PTPN11_C, SH2D1B, SHC1, SHF, SYK_C, TENC1 | CRKL, DAPP1, GADS, ITK, MATK, PLCG2_C, PTPN11_N, RIN1, Sh2b, SH3BP2, SHB, SHD, SHE, YES
SIEEpYTEMMPA [C03] | BRK, SHC1 | BLK, FER, FGR, LCK, PI3K1_C
SLDEpYGSSPGD [D09] | SLNK | BLK, LCK
SLDEpYTLMRAT [D14] |  | PI3K1_C
SLPQpYPHINGS [F06] | ZAP70_N | 
SLTIpYAQVQKA [A08] | BCAR3, BMX, BRDG1, FER, MATK, SH2D1B, TENC1 | MIST, PI3K1_N, PTPN11_N, PTPN11_C, RIN1, Sh2b, SHC1, SHD, SYK_C
SNPEpYLSASDV [A19] | VAV1 | 
SPGEpYVNIEFG [C16] | BLK, BMX, DAPP1, FGR, GADS, GRAP, GRB2, GRB7, ITK, MIST, PI3K1_N, PI3K1_C, PLCG2_C, PTPN11_N, PTPN11_C, RASA1_N, RASA1_C, Sh2b, SH2D2A, SHB, SHF, SHD, SHE, SYK_C, VAV1, YES | ABL1, ABL2, BRK, FYN, HCK, LCK, LYN, SH2D1B, SRC, TENC1

Substance | SH2 Domains >3X | 2X < SH2 Domains < 3X
SQVNpYRVPNMR [G16] | BCAR3, BRDG1, MIST, PLCG2_N, SHF, TENC1 | BMX, CRKL, PLCG2_C
SRGDpYMTMQMS [C19] | PI3K1_C | 
SSDSpYAVIDLK [G15] | SH2D1B, SHC1, SHIP1 | HCK
STDEpYLDLSAP [F11] | LCK | 
STVEpYSTVVHS [A11] | BRDG1, BRK, CRK, PTPN11_N, PTPN11_C, SH2D1B, SHC1, SHIP1 | ABL2, RIN1
SVIVpYKMKSGT [E04] | BCAR3, BMX, BRDG1, TENC1 | BRK, FER, MIST, PTPN11_C, SHF, SHD, SYK_C
TDDGpYMPMSPG [C06] | HCK, PI3K1_C, SRC | FYN
TEPTpYFYVTDY [A14] | BRK, ITK, RASA1_N | MATK, PLCG2_N, SH2D1B, SYK_C
TFGPpYSPSGGD [F19] |  | ZAP70_N
THDLpYMIMREC [F10] |  | PI3K1_C
TKDEpYFAVAAE [D04] |  | SH2D1B
TNEEpYLDLSQP [F02] |  | BLK, FYN, SH2D1B, SRC, ZAP70_N
TNELpYMMMRDS [E17] |  | PI3K1_C
TRDIpYETDpYpYR [A13] | ABL2, BCAR3, CRK, CRKL, DAPP1, GRB7, PI3K1_C, PLCG2_C | FGR, HCK, RASA1_N, SH2D1B, SRC, FGR, GRB7, LCK, LYN, MIST, RIN1
VFTTpYSDVWSF [B13] | ABL1, ABL2, BRK, ITK, RASA1_N, RASA1_C, RIN1, SH2D1B, SH2D2A, SHC1 | BCAR3, CRK, NCK1, PI3K1_N, SHIP1
VIMLpYVFHRKR [B11] | BCAR3, BMX, BRDG1, BRK, DAPP1, FER, MATK, MIST, PI3K1_N, PLCG2_N, PTPN11_N, PTPN11_C, RASA1_C, RIN1, SHB, SHF, SHD, SHE, TENC1 | GRB2, PI3K1_C, PLCG2_C, SH3BP2, SYK_C
VIVEpYASKGNL [E07] |  | BCAR3
VKWHpYLALRRY [F21] | BCAR3, BMX, BRDG1, BRK, DAPP1, FER, GRB2, MATK, MIST, PI3K1_N, PI3K1_C, PLCG2_N, PLCG2_C, PTPN11_N, PTPN11_C, RIN1, Sh2b, SH3BP2, SHB, SHF, SHD, TENC1 | FGR, ITK, RASA1_C, SH2D2A, SHE, SYK_C
VLSYpYSLPRSF [C13] | CRK, CRKL, Sh2b, SH2D2A, SHF, SYK_C | BRDG1, PLCG2_C, PTPN11_C, SHB
VLVEpYAAKGNL [F08] |  | MIST, ZAP70_N
VNPEpYFSAADV [B12] |  | Sh2b
VSCApYQVARGM [E11] | BRDG1 | CRK, ITK, MIST, PLCG2_N, SHB, SHF
VSCApYQVARGM [F14] | BRDG1 | CRK, ITK, MIST, PLCG2_N, PLCG2_C, SHF, SYK_C
VSCTpYQLARGM [E23] | BRDG1, MIST, PLCG2_N, SHF | ITK, PLCG2_C, SHB
VSEEpYLDLRLT [F18] | BMX, RASA1_N, SHB, SHD | 
VSFYpYSEENKP [B16] | ABL1, BCAR3 | ABL2, MATK
WDTGpYDSDERR [G03] | SH3BP2, SRC | DAPP1, FER, HCK, ZAP70_N
